# Key:
# Nod2 [1] = target: T1, Nod2 (Homo sapiens, UniProt Q9HC29); settings: cited from earlier work
# T1 construct: expressed in transfected cells
# Nod2 [2] = target: T1, Nod2; test: Nod2-dependent activation of NF-κB; type: cell-based; settings: 10 ng (FIG. 2d)
# Method: (§1) Studies examining the activation of NF-κB by LPS, lipid A, lipoproteins or the purified PGNs in cells over-expressing Nod1 were carried out as described by Inohara et al. (9). Briefly, HEK293 cells were transfected overnight with 10 ng of Nod 1. At the same time, the LPS, lipoproteins or peptidoglycan preparations were added and the NF-κB-dependent luciferase activation was then measured following 24 h of co-incubation.
# (§2) NF-κB-dependent luciferase assays were performed in duplicate and data represent at least 3 independent experiments.
# (§3) In FIG. 2a, PGN muropeptides from N. meningitides were separated by reverse-phase HPLC and subsequently analysed by mass spectroscopy (see supporting on-line text). […] In FIG. 2d, equivalent amounts (10 ng) of GM-dipeptide (GM-di; synthetic source), GM-tripeptide (GMtri), or GM-tetrapeptide (GM-tetra) were tested for stimulation of Nod 1-, Nod2- or TLR2-dependent activation of NF-κB. […] Buff, buffer diluent of the muropeptides.
# Nod1 [3] = target: T2, Nod1 (Homo sapiens, UniProt Q9Y239); test: Nod1-dependent NF-κB luciferase activation in Nod1-overexpressing HEK293 cells; type: cell-based; design: expressed in transfected cells; host or cells: HEK293; settings: for detection by Nod1: FIG. 8B-8D, additional experiments; for Nod1-dependent activation of NF-κB by muropeptides: 10 ng (FIG. 2d); for stimulation of the Nod1 pathway by HPLC fractions of N. meningitidis PGN muropeptides: 1% of the volume of each HPLC fraction (FIG. 2b); for stimulation of the Nod1 pathway (NF-κB activation): LPS, lipid A, lipoproteins preparations at 10 μg/ml (FIG. 1a, 1b)
# T2 sequence (Q9Y239 1-953): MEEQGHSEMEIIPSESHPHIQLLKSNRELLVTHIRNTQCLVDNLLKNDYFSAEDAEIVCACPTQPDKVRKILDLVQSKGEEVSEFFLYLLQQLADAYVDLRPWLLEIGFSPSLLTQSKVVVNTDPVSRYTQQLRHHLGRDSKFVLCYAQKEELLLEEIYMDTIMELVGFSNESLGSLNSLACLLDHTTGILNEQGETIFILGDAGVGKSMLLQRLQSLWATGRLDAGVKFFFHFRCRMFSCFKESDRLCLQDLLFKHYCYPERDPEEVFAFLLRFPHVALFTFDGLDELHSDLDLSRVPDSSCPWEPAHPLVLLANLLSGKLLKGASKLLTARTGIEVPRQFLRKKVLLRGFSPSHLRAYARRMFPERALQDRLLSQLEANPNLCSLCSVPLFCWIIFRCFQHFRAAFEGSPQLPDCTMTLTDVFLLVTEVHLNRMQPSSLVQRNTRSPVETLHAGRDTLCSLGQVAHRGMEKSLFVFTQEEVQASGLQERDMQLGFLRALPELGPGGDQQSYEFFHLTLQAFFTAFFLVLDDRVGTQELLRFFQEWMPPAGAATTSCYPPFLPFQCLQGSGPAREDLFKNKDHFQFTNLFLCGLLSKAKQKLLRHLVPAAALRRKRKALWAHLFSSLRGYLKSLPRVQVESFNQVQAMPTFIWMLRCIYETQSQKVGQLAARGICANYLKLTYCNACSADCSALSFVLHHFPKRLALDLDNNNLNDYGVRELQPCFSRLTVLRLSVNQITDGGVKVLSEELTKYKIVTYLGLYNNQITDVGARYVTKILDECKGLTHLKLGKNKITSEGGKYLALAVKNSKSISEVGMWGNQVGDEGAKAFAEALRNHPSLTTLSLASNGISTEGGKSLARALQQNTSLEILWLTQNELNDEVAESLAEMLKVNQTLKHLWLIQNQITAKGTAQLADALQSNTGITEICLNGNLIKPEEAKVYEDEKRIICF
# Method: as §1, §2
# Nod1 [4] = target: T2, Nod1; test: Nod1-dependent IL-8 production in HeLa epithelial cells (ELISA); type: cell-based; design: expressed in transfected cells; settings: HeLa cells transfected with 10 ng Nod1; 18 h; IL-1 at 10 ng/ml (FIG. 2f)
# Method: To measure Nod1-dependent IL-8 produced in epithelial cells by muropeptides, 5×10^5HeLa cells were seeded into each well of a twelve well plate and transfected the following day with 10 ng Nod1 plus the individual muropeptides (as described above) or treated with IL-1 as a positive control. Eighteen hours later, supernatants were collected and assayed for IL-8 as previously described (10) using an ELISA kit (R and D Systems).
# as §3
# [5] = tested on: NF-κB p65 in intestinal epithelial cells from Nod1-deficient mice; test: NF-κB p65 nuclear translocation in intestinal epithelial cells from Nod1-deficient mice; type: cell-based; settings: microinjection of supernatants; TNFα 10 ng/ml
# macrophages = test: Activation of macrophages; type: cell-based
# T1 sequence (Q9HC29 whole entry): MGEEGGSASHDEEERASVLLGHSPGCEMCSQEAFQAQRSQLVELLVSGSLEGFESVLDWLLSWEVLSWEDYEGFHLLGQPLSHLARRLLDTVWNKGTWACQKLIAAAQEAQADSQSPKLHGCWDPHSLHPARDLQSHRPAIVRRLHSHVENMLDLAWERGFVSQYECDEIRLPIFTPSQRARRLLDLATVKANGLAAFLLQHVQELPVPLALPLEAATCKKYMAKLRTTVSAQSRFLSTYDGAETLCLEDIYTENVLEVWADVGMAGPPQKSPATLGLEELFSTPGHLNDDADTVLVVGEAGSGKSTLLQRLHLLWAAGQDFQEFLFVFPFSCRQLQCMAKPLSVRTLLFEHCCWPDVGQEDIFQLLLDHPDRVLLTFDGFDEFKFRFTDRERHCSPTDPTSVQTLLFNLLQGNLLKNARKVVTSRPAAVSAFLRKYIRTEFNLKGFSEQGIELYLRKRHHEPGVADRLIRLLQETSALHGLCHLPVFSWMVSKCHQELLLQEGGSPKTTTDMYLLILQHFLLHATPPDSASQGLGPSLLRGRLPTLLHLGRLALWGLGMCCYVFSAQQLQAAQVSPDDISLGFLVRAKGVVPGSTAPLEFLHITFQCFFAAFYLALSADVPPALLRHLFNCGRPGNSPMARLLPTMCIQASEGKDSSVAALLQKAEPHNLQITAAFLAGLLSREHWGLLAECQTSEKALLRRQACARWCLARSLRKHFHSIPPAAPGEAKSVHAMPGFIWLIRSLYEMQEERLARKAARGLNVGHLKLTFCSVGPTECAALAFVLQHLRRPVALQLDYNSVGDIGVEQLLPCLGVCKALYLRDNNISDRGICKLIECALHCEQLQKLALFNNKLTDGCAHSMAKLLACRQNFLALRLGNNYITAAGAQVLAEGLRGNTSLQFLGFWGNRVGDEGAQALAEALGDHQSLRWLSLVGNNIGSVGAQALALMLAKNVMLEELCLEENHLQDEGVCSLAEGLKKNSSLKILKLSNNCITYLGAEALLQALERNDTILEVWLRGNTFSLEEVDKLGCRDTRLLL
compound,measurement,setting,value
"CC(=O)N[C@H]1C(O)O[C@H](CO)[C@@H](O)[C@@H]1O[C@H](C)C(=O)N[C@@H](C)C(=O)N[C@H](CCC(=O)O)C(N)=O (mixture of isomers) [M-dipeptide, muramyl dipeptide]",recognition by Nod2 (previous findings),Nod2 [1],recognizes
CC(=O)N[C@H]1[C@H](O[C@H]2[C@H](O[C@H](C)C(=O)N[C@@H](C)C(=O)N[C@H](CCC(=O)O)C(N)=O)[C@@H](NC(C)=O)C(O)O[C@@H]2CO)O[C@H](CO)[C@@H](O)[C@@H]1O (stereo partly drawn) [GM-dipeptide],Nod2-dependent activation of NF-κB by muropeptides,Nod2 [2],detects
CC(=O)NC1C(O)OC(CO)C(O)C1OC(C)C(=O)NC(C)C(=O)NC(CCC(=O)NC(CCCC(N)C(=O)O)C(=O)O)C(=O)O (stereo not drawn) [MurTriDAP],detection by Nod1,Nod1 [3],detects
CC(=O)N[C@H]1[C@@H](OP(=O)(O)OP(=O)(O)OC[C@H]2O[C@@H](n3ccc(=O)[nH]c3=O)[C@H](O)[C@@H]2O)O[C@H](CO)[C@@H](O)[C@@H]1O[C@H](C)C(=O)N[C@@H](C)C(=O)N[C@H](CCC(=O)N[C@@H](CCC[C@@H](N)C(=O)O)C(=O)O)C(=O)O [UDP-MurTriDAP],detection by Nod1,Nod1 [3],detects
"C[C@H](N)C(=O)N[C@H](CCC(=O)NC(CCCC(N)C(=O)O)C(=O)O)C(=O)O (stereo partly drawn) [tripeptide L-Ala-D-Glu-mesoDAP, L-Ala-D-Glu-mesoDAP]",detection by Nod1,Nod1 [3],able to sense
same,detection by Nod1,Nod1 [3]; listed as TriDAP,detects
GlcNAc-MurNAc-L-Ala-D-Glu-mesoDAP [GM-tripeptide],production of IL-8,Nod1 [4],"production of the pro-inflammatory chemokine, IL-8"
same,Nod1-dependent activation of NF-κB by muropeptides,Nod1 [3],specifically detects
same,stimulation of the Nod1 pathway by HPLC fractions of N. meningitidis PGN muropeptides,Nod1 [3],activates Nod1
same,detection by Nod1,Nod1 [3],detects
"GlcNAc-MurNAc-L-Ala-D-Glu-mesoDAP(GlcNAc-MurNAc-L-Ala-D-Glu-mesoDAP-D-Ala)-D-Ala [dimeric GM-tetrapeptide, reference compound]",stimulation of the Nod1 pathway by HPLC fractions of N. meningitidis PGN muropeptides,Nod1 [3],does not activate Nod1
GlcNAc-MurNAc-L-Ala-D-Glu-mesoDAP-DAla [GM-tetrapeptide],Nod1-dependent activation of NF-κB by muropeptides,Nod1 [3],not sensed
GlcNAc-anhydro-MurNAc-L-Ala-D-GlumesoDAP [anhydrous GM-tripeptide],stimulation of the Nod1 pathway by HPLC fractions of N. meningitidis PGN muropeptides,Nod1 [3],activates Nod1
Lpp: the most abundant lipoprotein in E. coli (lipidated),stimulation of the Nod1 pathway (NF-κB activation),Nod1 [3],not possible to stimulate the Nod1 pathway
"Pam3Cys-Ser-Lys4-OH [synthetic lipopeptide, reference compound]",stimulation of the Nod1 pathway (NF-κB activation),Nod1 [3],not possible to stimulate the Nod1 pathway
TNFα,NF-κB nuclear translocation in Nod1-deficient cells,[5],can efficiently stimulate NF-κB nuclear translocation
lipid A [reference compound],activation of macrophages,macrophages,could efficiently activate macrophages
same,stimulation of the Nod1 pathway (NF-κB activation),Nod1 [3],could not stimulate the Nod1 pathway

# From patent US7078165B2, “Method for modulating Nod1 activity, use of a MTP related molecule for modulating Nod1 activity, and therapeutic applications thereof” (Institut Pasteur, priority 2003, dated 2006)
